Experimental data taken from patent US12195427B2, “MASP-2 inhibitors and methods of use” (priority 2018, dated 2025).
Counter-ions that a name gives are not always drawn. Blank lines part the entries; values can stand above or below the compound they belong to.

Target: MASP-2 CCP2-SP (Homo sapiens (Human), UniProt O00187)
Assay: MASP-2 co-crystallization, X-ray crystallography and structure analysis (H-bonds, van der Waals contacts);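 for Ligand-pharmacophore element distance, pharmacophore element C2: distance from averaged pharmacophore element to bound ligand; missing value means element absent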;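 for Ligand-pharmacophore element distance, pharmacophore element C3: distance from averaged pharmacophore element to bound ligand; missing value means element absent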;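 for Ligand-pharmacophore element distance, pharmacophore element C4: distance from averaged pharmacophore element to bound ligand; missing value means element absent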;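 for Ligand-pharmacophore element distance, pharmacophore element C5: distance from averaged pharmacophore element to bound ligand; missing value means element absent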
Design: van der Waals contact distance, MASP-2 HIS 483 atom CD2 / van der Waals contact distance, MASP-2 HIS 483 atom NE2 / van der Waals contact distance, SER 654 C to compound atom / van der Waals contact distance, SER 654 O to compound atom / van der Waals contact distance, TRP 655 C to compound atom / van der Waals contact distance, MASP-2 GLY 528 atom CA / van der Waals contact distance TRP 655 atom CZ3 / van der Waals contact distance TRP 655 atom N / van der Waals contact distance TRP 655 atom CE3 / van der Waals contact distance GLY 656 atom C / van der Waals contact distance GLY 656 atom CA / van der Waals contact distance GLY 656 atom O / van der Waals contact distance, MASP-2 TYR 607 atom CD1 / van der Waals contact distance, MASP-2 PRO 606 atom O / d(C3,CA1) / d(CA1,N1)2 / d(H4,O1) / d(H4,O2) / d(O1,O2) / d(CA1,O2) / d(CA6,O1) / d(CA6,O2) / d(CA1,C5) / d(O2,H3) / d(N2,C2) / d(CA5,N2) / d(N2,C4) / d(N2,C6) / d(N2,CA3) / d(N2,O3) / d(O4,H2): unit not given beside the values
Conditions: for Ligand-pharmacophore element distance, pharmacophore element C2 / Ligand-pharmacophore element distance, pharmacophore element C3 / Ligand-pharmacophore element distance, pharmacophore element C4 / Ligand-pharmacophore element distance, pharmacophore element C5 / Ligand-pharmacophore element distance, pharmacophore element C6 / Ligand-pharmacophore element distance, pharmacophore element C7 / Ligand-pharmacophore element distance, pharmacophore element CA1 / Ligand-pharmacophore element distance, pharmacophore element CA2 / Ligand-pharmacophore element distance, pharmacophore element CA3 / Ligand-pharmacophore element distance, pharmacophore element CA4 / Ligand-pharmacophore element distance, pharmacophore element CA5 / Ligand-pharmacophore element distance, pharmacophore element CA6: Table A4-1; for A(N1, CA1, O1) a): all compounds with protonatable center N1 except Methyl-amino-pyridine; for H-bond distance to MASP-2 ASP 627 atom OD2: ASP 627 OD2; for H-bond distance to MASP-2 GLY 656 atom N: GLY 656 N; for H-bond distance to MASP-2 GLY 656 atom O: GLY 656 O; for H-bond distance to MASP-2 SER 654 atom O: SER 654 O; for H-bond distance to MASP-2 SER 657 atom O: SER 657 O
Procedure, shortened: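 Contacts and H-bonds come from partially refined soaked-crystal structures of recombinant human CCP2-SP made in E. coli, solved by molecular replacement against 1Q3X fragments. Where several ligand poses appeared, only one was analysed; listed nonbonded contacts may include possible H-bond pairings.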

[1] = Table A5-1 pharmacophore: distance between elements, S2/S1 region
[2] = Table A5-2 pharmacophore distance, S3/S4 region
[3] = Table A7-1, between pharmacophore elements of the bound compound
[4] = Table A7-2, between pharmacophore elements of the bound compound
[5] = Table A8-6, nearest protein atom in cell to the left

Chain of MASP-2 CCP2-SP (O00187 445-686): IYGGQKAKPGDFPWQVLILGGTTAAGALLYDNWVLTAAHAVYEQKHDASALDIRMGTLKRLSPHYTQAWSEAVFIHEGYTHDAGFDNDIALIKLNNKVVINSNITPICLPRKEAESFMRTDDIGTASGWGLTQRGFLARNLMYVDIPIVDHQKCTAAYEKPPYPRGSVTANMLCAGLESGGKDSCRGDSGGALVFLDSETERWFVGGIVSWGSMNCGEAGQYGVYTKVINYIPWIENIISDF
Chain of MASP-2 CCP2-SP (O00187 364-432 partner): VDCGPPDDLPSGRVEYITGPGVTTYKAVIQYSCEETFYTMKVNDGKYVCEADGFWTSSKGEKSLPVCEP

SMILES: C[C@H](NC(=O)[C@H]1Cc2c([nH]c3ccccc23)CN1)C(=O)NCc1ccc(C(=N)N)cc1.Cl.Cl [1097_2]
- Ligand-pharmacophore element distance, pharmacophore element C2: 0.72
- Ligand-pharmacophore element distance, pharmacophore element C3: 0
- Ligand-pharmacophore element distance, pharmacophore element C4: 0
- Ligand-pharmacophore element distance, pharmacophore element C5: 0
- Ligand-pharmacophore element distance, pharmacophore element C6: 0
- Ligand-pharmacophore element distance, pharmacophore element C7: 0
- Ligand-pharmacophore element distance, pharmacophore element CA1: 0.32
- Ligand-pharmacophore element distance, pharmacophore element CA2: 0
- Ligand-pharmacophore element distance, pharmacophore element CA3: 0
- Ligand-pharmacophore element distance, pharmacophore element CA4: 0
- Ligand-pharmacophore element distance, pharmacophore element CA5: 1.1
- Ligand-pharmacophore element distance, pharmacophore element CA6: 0
- d(CA1,N1) [1]: 3.52
- d(CA1,O1) [1]: 4.35
- d(CA1,O2) [1]: 4.09
- d(H4,O1) [1]: 4.74
- d(H4,O2) [1]: 4.28
- d(O1,O2) [1]: 3.33
- d(CA5,N2) [2]: 4.50
- d(N2,C2) [2]: 1.42
- d(O2,H3) [2]: 4.29
- d(O2,N2) [2]: 2.81
- a(CA1, O1, O2) (Table A6-1 pharmacophore angle): 109.11
- a(O1, O2, H4) (Table A6-1 pharmacophore angle): 137.06
- A(N1, CA1, O1) a) (Table A6-1 pharmacophore angle): 163.92
- a(O1, O2, H3) (Table A6-2 pharmacophore angle): 153.30
- a(O1, O2, N2) (Table A6-2 pharmacophore angle): 137.12
- a(O2, N2, C2) (Table A6-2 pharmacophore angle): 128.45
- Pharmacophore torsion angle a(H4, O1, O2, H3) [3]: 91.00
- Pharmacophore torsion angle a(H4, O1, O2, N2) [3]: 129.42
- Pharmacophore torsion angle a(N1, CA1, O2, H4) [3]: −142.69
- Pharmacophore torsion angle a(O1, H4, O2, CA1) [3]: −71.28
- Pharmacophore torsion angle a(O1, O2, N2, C2) [3]: 125.27
- Pharmacophore torsion angle a(O1, O2, N2, CA5) [4]: 137.08
- Pharmacophore protein distance to MET_658 (first MET_658 column) (Table A8-6, 6th residue column, nearest protein atom in cell to the left): 2.55
- Pharmacophore protein distance to MET_658 (second MET_658 column) (Table A8-6, 9th residue column, nearest protein atom in cell to the left): 3.13
- Pharmacophore protein distance to GLY_528 [5]: 3.52
- Pharmacophore protein distance to PHE_529 [5]: 3.02
- Pharmacophore protein distance to PRO_608 [5]: 3.56
- Pharmacophore protein distance to SER_611 [5]: 3.29
- Pharmacophore protein distance to TRP_655 (Table A8-6, pharmacophore elements C6, CA3, O3, H1, nearest protein atom in cell to the left): 3.09

SMILES: Cc1nc(N)ccc1CNC(=O)[C@H](C)NC(=O)[C@H]1C[C@@H](Cc2ccccc2)CCN1 [compound 1353, (2R,4S)—N—((S)-1-(((6-Amino-2-methylpyridin-3-yl)methyl)amino)-1-oxopropan-2-yl)-4-benzylpiperidine-2-carboxamide]
- H-bond distance to MASP-2 ASP 627 atom OD2 (Table A1 (H-Bonds)): 3.17
- H-bond distance to MASP-2 GLY 656 atom N (Table A1 (H-Bonds)): 3.15
- H-bond distance to MASP-2 GLY 656 atom O (Table A1 (H-Bonds)): 2.85
- H-bond distance to MASP-2 SER 654 atom O (Table A1 (H-Bonds)): 3
- H-bond distance to MASP-2 SER 657 atom O (Table A1 (H-Bonds)): 2.91
- van der Waals contact distance, MASP-2 HIS 483 atom CD2 (Table A2-1): 3.77
- van der Waals contact distance, MASP-2 HIS 483 atom NE2 (Table A2-1): 3.67
- van der Waals contact distance, MASP-2 PHE 529 atom CD2 (Table A2-3): 3.68
- van der Waals contact distance, MASP-2 TYR 607 atom CD1 (Table A2-4): 3.75
- van der Waals contact distance, MASP-2 amino acid atom to compound atom (Table A2-7: SER 628 (CB, O, OG)): 3.66
- van der Waals contact distance, MASP-2 amino acid atom to compound atom (Table A2-9, ARG 630, AA atoms CG, CZ): 3.74
- van der Waals contact distance, VAL 653 CG1 to compound atom (Table A2-11): 3.3
- van der Waals contact distance, TRP 655 CA to compound atom (Table A2-12): 3.3
- Ligand-pharmacophore element distance, pharmacophore element C2: 0.58
- Ligand-pharmacophore element distance, pharmacophore element C3: 0.13
- Ligand-pharmacophore element distance, pharmacophore element C4: 0
- Ligand-pharmacophore element distance, pharmacophore element C5: 0
- Ligand-pharmacophore element distance, pharmacophore element C6: 0
- Ligand-pharmacophore element distance, pharmacophore element C7: 0
- Ligand-pharmacophore element distance, pharmacophore element CA1: 0.61
- Ligand-pharmacophore element distance, pharmacophore element CA2: 0.5
- Ligand-pharmacophore element distance, pharmacophore element CA3: 0
- Ligand-pharmacophore element distance, pharmacophore element CA4: 0
- Ligand-pharmacophore element distance, pharmacophore element CA5: 0
- Ligand-pharmacophore element distance, pharmacophore element CA6: 0
- d(C3,CA1) [1]: 2.85
- d(CA1,N1)2 [1]: 1.36
- d(CA1,O1) [1]: 4.38
- d(CA1,O2) [1]: 3.79
- d(H4,O1) [1]: 4.38
- d(H4,O2) [1]: 3.72
- d(O1,O2) [1]: 3.27
- d(N2,C2) [2]: 1.45
- d(N2,CA2) [2]: 6.50
- d(O2,H3) [2]: 4.10
- d(O2,N2) [2]: 2.69
- a(C3, CA1, O1) (Table A6-1 pharmacophore angle): 149.99
- a(CA1, O1, O2) (Table A6-1 pharmacophore angle): 103.61
- a(O1, O2, H4) (Table A6-1 pharmacophore angle): 133.22
- a(N1, CA1, O1) b) (Table A6-1 pharmacophore angle, Methyl-amino-pyridine compounds): 173.73
- a(O1, O2, H3) (Table A6-2 pharmacophore angle): 146.74
- a(O1, O2, N2) (Table A6-2 pharmacophore angle): 137.66
- a(O2, N2, C2) (Table A6-2 pharmacophore angle): 130.69
- a(O2, N2, CA2) (Table A6-2 pharmacophore angle): 157.19
- Pharmacophore torsion angle a(C3, CA1, O1, H4) [3]: 23.38
- Pharmacophore torsion angle a(H4, O1, O2, H3) [3]: 51.34
- Pharmacophore torsion angle a(H4, O1, O2, N2) [3]: 136.30
- Pharmacophore torsion angle a(N1, CA1, O1, H4) [3]: 3.14
- Pharmacophore torsion angle a(O1, H4, O2, CA1) [3]: −84.72
- Pharmacophore torsion angle a(O1, O2, N2, C2) [3]: 126.15
- Pharmacophore torsion angle a(O1, O2, N2, CA2) [4]: 120.30

- H-bond distance to MASP-2 ASP 627 atom OD2 (Table A1 (H-Bonds)): 3.32
- H-bond distance to MASP-2 GLY 656 atom N (Table A1 (H-Bonds)): 3.06
- H-bond distance to MASP-2 GLY 656 atom O (Table A1 (H-Bonds)): 2.7
- H-bond distance to MASP-2 SER 654 atom O (Table A1 (H-Bonds)): 2.78
- H-bond distance to MASP-2 SER 657 atom O (Table A1 (H-Bonds)): 2.72
- H-bond distance to MASP-2 SER 657 atom OG (Table A1 (H-Bonds), SER 657 OG): 2.62
- van der Waals contact distance, MASP-2 HIS 483 atom CD2 (Table A2-1): 3.78
- van der Waals contact distance, MASP-2 PRO 606 atom O (Table A2-4): 3.81
- van der Waals contact distance, MASP-2 amino acid atom to compound atom (Table A2-9 second part, ARG 630, AA atoms N, NE, NH1): 3.71
- van der Waals contact distance, SER 654 C to compound atom (Table A2-11): 3.88
- van der Waals contact distance, VAL 653 CG1 to compound atom (Table A2-11): 3.61
- van der Waals contact distance, TRP 655 C to compound atom (Table A2-12): 3.7
- van der Waals contact distance TRP 655 atom CE3 (Table A2-13, MASP-2 TRP 655 CE3, compound atom in line below): 3.74
- van der Waals contact distance, MASP-2 amino acid atom to compound atom (Table A2 section before Table A2-8): 3.86
- Ligand-pharmacophore element distance, pharmacophore element C2: 2.91
- Ligand-pharmacophore element distance, pharmacophore element C3: 0
- Ligand-pharmacophore element distance, pharmacophore element C4: 0
- Ligand-pharmacophore element distance, pharmacophore element C5: 0
- Ligand-pharmacophore element distance, pharmacophore element C6: 0
- Ligand-pharmacophore element distance, pharmacophore element C7: 0
- Ligand-pharmacophore element distance, pharmacophore element CA1: 1.7
- Ligand-pharmacophore element distance, pharmacophore element CA2: 0
- Ligand-pharmacophore element distance, pharmacophore element CA3: 0
- Ligand-pharmacophore element distance, pharmacophore element CA4: 0
- Ligand-pharmacophore element distance, pharmacophore element CA5: 0.84
- Ligand-pharmacophore element distance, pharmacophore element CA6: 0
- d(CA1,N1) [1]: 1.85
- d(CA1,O1) [1]: 4.66
- d(CA1,O2) [1]: 6.47
- d(CA6,O1) [1]: 3.43
- d(CA6,O2) [1]: 1.13
- d(H4,O1) [1]: 3.14
- d(H4,O2) [1]: 5.11
- d(O1,O2) [1]: 3.18
- d(O2,H3) [2]: 7.20
- a(CA1, O1, O2) (Table A6-1 pharmacophore angle): 137.45
- a(O1, CA6, O2) (Table A6-1 pharmacophore angle): 87.17
- a(O1, O2, H4) (Table A6-1 pharmacophore angle): 143.64
- A(N1, CA1, O1) a) (Table A6-1 pharmacophore angle): 173.84
- a(O1, O2, H3) (Table A6-2 pharmacophore angle): 153.97
- Pharmacophore torsion angle a(CA6, O1, H4, O2) [3]: −19.90
- Pharmacophore torsion angle a(H4, O1, O2, H3) [3]: 94.72
- Pharmacophore torsion angle a(N1, CA1, O2, H4) [3]: −132.36
- Pharmacophore torsion angle a(O1, H4, O2, CA1) [3]: −60.21
SMILES: Cc1cnc(NCCc2ccccc2)c(=O)n1CC(=O)NCc1ccc2nc(N)[nH]c2c1 [compound 1492, N-((2-Amino-1H-benzo[d]imidazol-6-yl)methyl)-2-(6-methyl-2-oxo-3-(phenethylamino)pyrazin-1(2H)-yl)acetamide Trifluoroacetamide salt]
